This note sets out measurements from patent US12291519B2, “2-hydroxycycloalkane-1-carbamoyl” (Idorsia Pharmaceuticals Ltd, priority 2019, dated 2025).

The target in one test is human Gal-3 (hGal-3) (Homo sapiens (Human), UniProt P17931). Briefly: Competitive binding assay: biotinylated hGal-3 binding to microplate-adsorbed asialofetuin (ASF). Particulars: Activity on hGal-3; binding of biotinylated hGal-3 to ASF-coated plates; mean values. The procedure, abridged:
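Serially diluted compounds competed with biotinylated human Gal-3 for binding to plate-adsorbed asialofetuin over 3 h at 4 °C. Bound Gal-3 was detected with streptavidin-peroxidase (80 ng/mL, 1 h, 4 °C) and ABTS substrate. IC50 values are means of several measurements.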

In the next test the target is human Gal-1 (hGal-1). Briefly: Competitive binding assay: biotinylated hGal-1 binding to microplate-adsorbed asialofetuin (ASF). Particulars: Activity on hGal-1; binding of biotinylated hGal-1 to ASF-coated plates; mean values. The gist of the method:
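Inhibition measured as loss of hGal-1 (biotinylated, 300–1000 ng/mL, wild type or Cys→Ser mutant) binding to adsorbed asialofetuin over 3 h at 4 °C. Bound lectin detected with streptavidin-HRP and ABTS (410 nm, 30–45 min); IC50 values averaged across repeat measurements.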

Molecules are shown by their SMILES.

human Gal-1 (hGal-1), sequence (P09382 2-135 limits assumed): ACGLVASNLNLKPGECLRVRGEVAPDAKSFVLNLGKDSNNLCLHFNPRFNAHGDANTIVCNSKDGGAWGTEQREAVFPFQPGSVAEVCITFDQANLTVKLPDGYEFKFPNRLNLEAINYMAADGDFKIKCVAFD
human Gal-3 (hGal-3), sequence (P17931 whole entry): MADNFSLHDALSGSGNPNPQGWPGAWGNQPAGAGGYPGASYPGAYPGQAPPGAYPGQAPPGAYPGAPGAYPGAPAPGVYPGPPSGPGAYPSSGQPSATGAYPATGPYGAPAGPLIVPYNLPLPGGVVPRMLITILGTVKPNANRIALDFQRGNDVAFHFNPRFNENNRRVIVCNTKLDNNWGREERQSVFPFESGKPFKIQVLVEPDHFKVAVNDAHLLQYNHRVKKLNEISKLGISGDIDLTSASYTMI

As to `CCn1nccc1CN(C(=O)[C@@H]1O[C@H](CO)[C@H](O)[C@H](n2cc(-c3cc(F)c(F)c(F)c3)nn2)[C@H]1OC)[C@H]1CCCC[C@@H]1O` [Example 44, (2R,3R,4S,5R,6R)-N-((1-ethyl-1H-pyrazol-5-yl)methyl)-5-hydroxy-N-((1S,2S)-2-hydroxycyclohexyl)-6-(hydroxymethyl)-3-methoxy-4-(4-(3,4,5-trifluorophenyl)-1H-1,2,3-triazol-1-yl)tetrahydro-2H-pyran-2-carboxamide], the IC50 on human Gal-3 (hGal-3) is 179 nM; on human Gal-1 (hGal-1), 974 nM.
In the same order, the values of `CO[C@@H]1[C@@H](n2cc(-c3cc(F)c(F)c(F)c3)nn2)[C@@H](O)[C@@H](CO)O[C@H]1C(=O)N(Cc1ccnn1C(C)C)[C@H]1CCCC[C@@H]1O` [Example 45, (2R,3R,4S,5R,6R)-5-hydroxy-N-((1S,2S)-2-hydroxycyclohexyl)-6-(hydroxymethyl)-N-((1-isopropyl-1H-pyrazol-5-yl)methyl)-3-methoxy-4-(4-(3,4,5-trifluorophenyl)-1H-1,2,3-triazol-1-yl)tetrahydro-2H-pyran-2-carboxamide] are 421 nM and 1430 nM.
Take `CO[C@@H]1[C@@H](n2cc(-c3cc(F)c(F)c(F)c3)nn2)[C@@H](O)[C@@H](CO)O[C@H]1C(=O)N(Cc1ccnn1CC1CC1)[C@H]1CCCC[C@@H]1O` [Example 46, (2R,3R,4S,5R,6R)-N-((1-(cyclopropylmethyl)-1H-pyrazol-5-yl)methyl)-5-hydroxy-N-((1S,2S)-2-hydroxycyclohexyl)-6-(hydroxymethyl)-3-methoxy-4-(4-(3,4,5-trifluorophenyl)-1H-1,2,3-triazol-1-yl)tetrahydro-2H-pyran-2-carboxamide]: the figures for the IC50 on human Gal-3 (hGal-3) and on human Gal-1 (hGal-1) were 160 nM and 497 nM, respectively.
For `CO[C@@H]1[C@@H](n2cc(-c3cc(F)c(F)c(F)c3)nn2)[C@@H](O)[C@@H](CO)O[C@H]1C(=O)N(Cc1cc(C)nn1C)[C@H]1CCCC[C@@H]1O` [Example 47, (2R,3R,4S,5R,6R)-N-((1,3-dimethyl-1H-pyrazol-5-yl)methyl)-5-hydroxy-N-((1S,2S)-2-hydroxycyclohexyl)-6-(hydroxymethyl)-3-methoxy-4-(4-(3,4,5-trifluorophenyl)-1H-1,2,3-triazol-1-yl)tetrahydro-2H-pyran-2-carboxamide], the values for the IC50 on human Gal-3 (hGal-3) and on human Gal-1 (hGal-1) were 151 nM and 1040 nM, respectively.
For `CO[C@@H]1[C@@H](n2cc(-c3cc(F)c(F)c(F)c3)nn2)[C@@H](O)[C@@H](CO)O[C@H]1C(=O)N(Cc1cc2ccccc2n1C)[C@H]1CCCC[C@@H]1O` [Example 48, (2R,3R,4S,5R,6R)-5-hydroxy-N-((1S,2S)-2-hydroxycyclohexyl)-6-(hydroxymethyl)-3-methoxy-N-((1-methyl-1H-indol-2-yl)methyl)-4-(4-(3,4,5-trifluorophenyl)-1H-1,2,3-triazol-1-yl)tetrahydro-2H-pyran-2-carboxamide], the half-inhibitory concentration (IC50) amounted to 344 nM at human Gal-3 (hGal-3) and 2240 nM on human Gal-1 (hGal-1).
Consider `CC(=O)O[C@@H]1[C@@H](n2cc(-c3cc(F)cc(F)c3)nn2)[C@@H](O)[C@@H](CO)O[C@H]1C(=O)N(Cc1ccnn1C)[C@H]1CCCC[C@@H]1O` [Example 49, (2R,3R,4S,5R,6R)-4-(4-(3,5-difluorophenyl)-1H-1,2,3-triazol-1-yl)-5-hydroxy-2-(((1S,2S)-2-hydroxycyclohexyl)((1-methyl-1H-pyrazol-5-yl)methyl)carbamoyl)-6-(hydroxymethyl)tetrahydro-2H-pyran-3-yl acetate], for which the values for the IC50 on human Gal-3 (hGal-3) and at human Gal-1 (hGal-1) were 129 nM and 1940 nM, respectively.
For `CC(=O)O[C@@H]1[C@@H](n2cc(-c3cc(F)c(Cl)c(F)c3)nn2)[C@@H](O)[C@@H](CO)O[C@H]1C(=O)N(Cc1ccnn1C)[C@H]1CCCC[C@@H]1O` [Example 50, (2R,3R,4S,5R,6R)-4-(4-(4-chloro-3,5-difluorophenyl)-1H-1,2,3-triazol-1-yl)-5-hydroxy-2-(((1S,2S)-2-hydroxycyclohexyl)((1-methyl-1H-pyrazol-5-yl)methyl)carbamoyl)-6-(hydroxymethyl)tetrahydro-2H-pyran-3-yl acetate], the IC50 on human Gal-3 (hGal-3) amounted to 53 nM; on human Gal-1 (hGal-1), 7580 nM.
On to `CC(=O)O[C@@H]1[C@@H](n2cc(-c3cc(F)c(C)c(F)c3)nn2)[C@@H](O)[C@@H](CO)O[C@H]1C(=O)N(Cc1ccnn1C)[C@H]1CCCC[C@@H]1O` [Example 51, (2R,3R,4S,5R,6R)-4-(4-(3,5-difluoro-4-methylphenyl)-1H-1,2,3-triazol-1-yl)-5-hydroxy-2-(((1S,2S)-2-hydroxycyclohexyl)((1-methyl-1H-pyrazol-5-yl)methyl)carbamoyl)-6-(hydroxymethyl)tetrahydro-2H-pyran-3-yl acetate], for which the results for the IC50 on human Gal-3 (hGal-3) and on human Gal-1 (hGal-1) were 58 nM and 11200 nM, respectively.
On to `CC(=O)O[C@@H]1[C@@H](n2cc(-c3cccc(F)c3)nn2)[C@@H](O)[C@@H](CO)O[C@H]1C(=O)N(Cc1ccnn1C)[C@H]1CCCC[C@@H]1O` [Example 52, (2R,3R,4S,5R,6R)-4-(4-(3-fluorophenyl)-1H-1,2,3-triazol-1-yl)-5-hydroxy-2-(((1S,2S)-2-hydroxycyclohexyl)((1-methyl-1H-pyrazol-5-yl)methyl)carbamoyl)-6-(hydroxymethyl)tetrahydro-2H-pyran-3-yl acetate], for which the IC50 at human Gal-3 (hGal-3) came to 191 nM; on human Gal-1 (hGal-1), 1600 nM.
Take `CO[C@@H]1[C@@H](n2cc(-c3cc(F)c(F)c(F)c3)nn2)[C@@H](O)[C@@H](CO)O[C@H]1C(=O)N(Cc1cccc(Cl)c1)[C@H]1CCCC[C@@H]1O` [Example 53, (2R,3R,4S,5R,6R)-N-(3-chlorobenzyl)-5-hydroxy-N-((1S,2S)-2-hydroxycyclohexyl)-6-(hydroxymethyl)-3-methoxy-4-(4-(3,4,5-trifluorophenyl)-1H-1,2,3-triazol-1-yl)tetrahydro-2H-pyran-2-carboxamide]: the IC50 on human Gal-3 (hGal-3) turned out to be 868 nM; on human Gal-1 (hGal-1), 10800 nM.
In the same order, the values of `CO[C@@H]1[C@@H](n2cc(-c3cc(F)c(F)c(F)c3)nn2)[C@@H](O)[C@@H](CO)O[C@H]1C(=O)N(Cc1cccc(Cl)c1)[C@H]1CCCC[C@@H]1O` [Example 54] are 20 nM and 2660 nM.
On to `CC(=O)O[C@@H]1[C@@H](n2cc(-c3cc(F)c(F)c(F)c3)nn2)[C@@H](O)[C@@H](CO)O[C@H]1C(=O)N(Cc1ccccc1C(F)(F)F)[C@H]1CCCC[C@@H]1O` [Example 55, (2R,3R,4S,5R,6R)-5-hydroxy-2-(((1S,2S)-2-hydroxycyclohexyl)(2-(trifluoromethyl)benzyl)carbamoyl)-6-(hydroxymethyl)-4-(4-(3,4,5-trifluorophenyl)-1H-1,2,3-triazol-1-yl)tetrahydro-2H-pyran-3-yl acetate], for which the IC50 turned out to be 31 nM on human Gal-3 (hGal-3) and 828 nM at human Gal-1 (hGal-1).
Consider `CO[C@@H]1[C@@H](n2cc(-c3cc(F)c(F)c(F)c3)nn2)[C@@H](O)[C@@H](CO)O[C@H]1C(=O)N(c1ccc(F)c(F)c1)[C@H]1CCCC[C@@H]1O` [Example 56], for which the IC50 came out at 42 nM at human Gal-3 (hGal-3) and 417 nM at human Gal-1 (hGal-1).
In the same order, the values of `CO[C@@H]1[C@@H](n2cc(-c3cc(F)c(F)c(F)c3)nn2)[C@@H](O)[C@@H](CO)O[C@H]1C(=O)N(c1cccc(Cl)c1)[C@H]1CCCC[C@@H]1O` [Example 58] are 21 nM and 729 nM.
In the same order, the values of `CO[C@@H]1[C@@H](n2cc(-c3cc(F)c(F)c(F)c3)nn2)[C@@H](O)[C@@H](CO)O[C@H]1C(=O)N(c1cc(Cl)cc(Cl)c1)[C@H]1CCCC[C@@H]1O` [Example 60] are 16 nM and 665 nM.
In the same order, the values of `CC(=O)O[C@@H]1[C@@H](n2cc(-c3cccc(F)c3)nn2)[C@@H](O)[C@@H](CO)O[C@H]1C(=O)N(Cc1ccccc1C(F)(F)F)[C@H]1CCCC[C@@H]1O` [Example 62, (2R,3R,4S,5R,6R)-4-(4-(3-fluorophenyl)-1H-1,2,3-triazol-1-yl)-5-hydroxy-2-(((1S,2S)-2-hydroxycyclohexyl)(2-(trifluoromethyl)benzyl)carbamoyl)-6-(hydroxymethyl)tetrahydro-2H-pyran-3-yl acetate] are 141 nM and 939 nM.
On to `CC(=O)O[C@@H]1[C@@H](n2cc(-c3cc(F)cc(F)c3)nn2)[C@@H](O)[C@@H](CO)O[C@H]1C(=O)N(Cc1ccccc1C(F)(F)F)[C@H]1CCCC[C@@H]1O` [Example 63, (2R,3R,4S,5R,6R)-4-(4-(3,5-difluorophenyl)-1H-1,2,3-triazol-1-yl)-5-hydroxy-2-(((1S,2S)-2-hydroxycyclohexyl)(2-(trifluoromethyl)benzyl)carbamoyl)-6-(hydroxymethyl)tetrahydro-2H-pyran-3-yl acetate], for which the IC50 at human Gal-3 (hGal-3) was determined as 138 nM; on human Gal-1 (hGal-1), 1020 nM.
With `COc1cnc2ccc(F)c(CN(C(=O)[C@@H]3O[C@H](CO)[C@H](O)[C@H](n4cc(-c5cc(F)c(F)c(F)c5)nn4)[C@H]3OC)[C@H]3CCCC[C@@H]3O)c2n1` [Example 64, (2R,3R,4S,5R,6R)-N-((6-fluoro-3-methoxyquinoxalin-5-yl)methyl)-5-hydroxy-N-((1S,2S)-2-hydroxycyclohexyl)-6-(hydroxymethyl)-3-methoxy-4-(4-(3,4,5-trifluorophenyl)-1H-1,2,3-triazol-1-yl)tetrahydro-2H-pyran-2-carboxamide], the IC50 at human Gal-3 (hGal-3) amounted to 123 nM; at human Gal-1 (hGal-1), 980 nM.
For the molecule `CO[C@@H]1[C@@H](n2cc(-c3cc(F)c(F)c(F)c3)nn2)[C@@H](O)[C@@H](CO)O[C@H]1C(=O)N(Cc1nc2ccccc2cc1Cl)[C@H]1CCCC[C@@H]1O` [Example 65, (2R,3R,4S,5R,6R)-N-((3-chloroquinolin-2-yl)methyl)-5-hydroxy-N-((1S,2S)-2-hydroxycyclohexyl)-6-(hydroxymethyl)-3-methoxy-4-(4-(3,4,5-trifluorophenyl)-1H-1,2,3-triazol-1-yl)tetrahydro-2H-pyran-2-carboxamide], the values for the IC50 on human Gal-3 (hGal-3) and on human Gal-1 (hGal-1) were 196 nM and 6770 nM, respectively.

As a reminder, the IC50 is the midpoint of a concentration-inhibition curve.
